Measured values as given in publication PMC9248904, “Genomic and Chemical Decryption of the Bacteroidetes Phylum for Its Potential to Biosynthesize Natural Products” (Microbiology Spectrum, 2022).
Converted amounts (≈) assume the structure as drawn. Where two headings read alike, the source gives them in different places. *1 amine or outer side, *2 acyl side, *3 side chain or, on linkers, in order; H or OH if unused. Where a SMILES comes first, the peptide text is derived from it. Bridges are numbered along the chain shown (N, C = ends). [ ]: non-standard residue; d: D form. The star is where a group is joined. Phe(3R-OH) = O=C([C@@H](N[*:1])[C@H](O[*:3])c1ccccc1)[*:2]; Asp(3S-OH) = N[C@H](C(=O)O)[C@H](O)C(=O)O; Ile(3R-OH) = CC[C@@](C)(O)[C@H](N)C(=O)O; d(aIle) = CC[C@H](C)[C@@H](N)C(=O)O; d(aThr) = C[C@@H](O)[C@@H](N)C(=O)O; X1 = CC(C)CCCCCC(N)C(C)C(=O)*; NMeV = CN[C@H](C(=O)O)C(C)C; X2 = CCCCCCCC(N)C(C)C(=O)*; Dap = NC[C@H](N)C(=O)O

Key:
[1] = system: Mycobacterium smegmatis ATCC 607; assay: microbe, parasite or virus in culture; format: cell-based; settings: M. smegmatis ATCC 607, BHI broth + 1% Tween 80, 2 days 37°C, BacTiter-Glo, Iron -, at least triplicate
Method: (§1) The MIC was determined by broth microdilution method in 96-well plates with 100 µL assay volume per well following EUCAST instructions ([116], [117]) for E. coli ATCC 35218, E. coli ATCC 25922 ΔTolC, E. coli MG1655, Pseudomonas aeruginosa ATCC 27853, P. aeruginosa PAO750, Klebsiella pneumoniae ATCC 13883, Moraxella catarrhalis ATCC 25238, Acinetobacter baumannii ATCC 19606, Bacillus subtilis DSM 10, Staphylococcus aureus ATCC 25923, and Micrococcus luteus DSM 20030. Listeria monocytogenes DSM 20600 (1 day of incubation at 37°C) and Mycobacterium smegmatis ATCC 607 (2 days of incubation at 37°C) were grown in BHI broth supplemented with 1% (vol/vol) Tween 80. Candida albicans FH2173 was grown in MHIIB over 2 days of incubation at 37°C (pre-culture 2 days at 28°C). Approximate inoculation cell density for all strains was 500,000 CFU/mL, except 1,000,000 CFU/mL were used for M. smegmatis and C. albicans. For all fungal screenings 100,000 spores/mL were used and incubated at 37°C for Aspergillus flavus ATCC 9170 (MHIIB) and 25°C for Z. tritici MUCL45407 (4 g/L yeast extract, 4 g/L malt extract, 4 g/L sucrose) and Fusarium oxysporum ATCC 7601 (potato dextrose broth, Sigma). Growth inhibition was detected by optical density (600 nm) or for M. luteus, L. monocytogenes, C. albicans, M. smegmatis, and all fungi by quantification of free ATP using BacTiter-Glo after 24 to 48 h (72 h for Z. tritici). All MIC assays were performed at least in triplicate. FE(III)-citrate was added at molar ratios of 1:1 to samples in DMSO to test compounds in their iron bound conformation.

[2] = system: Fusarium oxysporum ATCC 7601; assay: microbe, parasite or virus in culture; format: cell-based
Method: as §1

[3] = system: Aspergillus flavus ATCC 9170; assay: microbe, parasite or virus in culture; format: cell-based
Method: as §1

Z. tritici MUCL45407 = assay: microbe, parasite or virus in culture; format: cell-based
Method: as §1

Candida albicans FH2173 = assay: microbe, parasite or virus in culture; format: cell-based; settings: C. albicans FH2173, at least triplicate; for MIC: MHIIB, 2 days 37°C, BacTiter-Glo, Iron -
Method: as §1

[4] = system: Acinetobacter baumannii ATCC 19606; format: cell-based
Method: as §1

[5] = system: Moraxella catarrhalis ATCC 25238; format: cell-based
Method: as §1

[6] = system: Pseudomonas aeruginosa ATCC 27853; format: cell-based
Method: as §1

[7] = system: Staphylococcus aureus ATCC 25923; format: cell-based
Method: as §1

Bacillus subtilis DSM 10 = format: cell-based
Method: as §1

[8] = system: Micrococcus luteus DSM 20030; format: cell-based
Method: as §1

E. coli ATCC 25922 ΔTolC = format: cell-based, Escherichia coli; settings: broth microdilution, 96-well, EUCAST, OD600, Iron -, at least triplicate
Method: as §1

E. coli ATCC 35218 = format: cell-based, Escherichia coli
Method: as §1

[9] = system: Klebsiella pneumoniae ATCC 13883; format: cell-based; settings: ATCC 13883
Method: as §1

E. coli MG1655 = format: cell-based, Escherichia coli; settings: broth microdilution, 96-well, EUCAST, OD600, Iron -, at least triplicate
Method: as §1

P. aeruginosa PAO750 = format: cell-based, Pseudomonas aeruginosa; settings: broth microdilution, 96-well, EUCAST, OD600, Iron -, at least triplicate
Method: as §1

[10] = F. oxysporum ATCC 7601, potato dextrose broth, 25°C, 100,000 spores/mL, BacTiter-Glo, Iron -, at least triplicate
[11] = A. flavus ATCC 9170, MHIIB, 37°C, 100,000 spores/mL, BacTiter-Glo, Iron -, at least triplicate
[12] = Z. tritici MUCL45407, 25°C, 72 h, 100,000 spores/mL, BacTiter-Glo, Iron -, at least triplicate
[13] = A. baumannii ATCC 19606, broth microdilution, 96-well, EUCAST, OD600, Iron -, at least triplicate
[14] = M. catarrhalis ATCC 25238, broth microdilution, 96-well, EUCAST, OD600, Iron -, at least triplicate
[15] = P. aeruginosa ATCC 27853, broth microdilution, 96-well, EUCAST, OD600, Iron -, at least triplicate
[16] = S. aureus ATCC 25923, broth microdilution, 96-well, EUCAST, OD600, Iron -, at least triplicate
[17] = B. subtilis DSM 10, broth microdilution, 96-well, EUCAST, OD600, Iron -, at least triplicate
[18] = M. luteus DSM 20030, broth microdilution, 96-well, free ATP (BacTiter-Glo), Iron -, at least triplicate
[19] = E. coli ATCC 35218, broth microdilution, 96-well, EUCAST, OD600, chitinopeptins without iron (Iron -), at least triplicate
[20] = Fusarium oxysporum, ATCC7601, F. oxysporum ATCC 7601, potato dextrose broth, 25°C, 100,000 spores/mL, BacTiter-Glo, Iron -, at least triplicate, read-out: MIC
[21] = Candida albicans, 48 h, read-out: MIC

Chitinopeptin C1+C2
MIC [1]: > 64 µg/mL | MIC [2, 10]: > 64 µg/mL | MIC [3, 11]: 64 µg/mL | MIC (Z. tritici MUCL45407; [12]): 16 µg/mL | MIC (Candida albicans FH2173): 16 µg/mL | MIC [4, 13]: 16 µg/mL | MIC [5, 14]: 2 µg/mL | MIC [6, 15]: > 64 µg/mL | MIC [7, 16]: > 64 µg/mL | MIC (Bacillus subtilis DSM 10; [17]): 4 µg/mL | MIC [8, 18]: 32 µg/mL | MIC (E. coli ATCC 25922 ΔTolC): > 64 µg/mL | MIC (E. coli ATCC 35218; [19]): > 64 µg/mL

NNC(=O)c1ccncc1 [Isoniazid, reference compound]
MIC ([1]; Mycolicibacterium smegmatis, ATCC607, 48 h, read-out: MIC): 1 µg/mL

CC(C)(C)C(O)(CCc1ccc(Cl)cc1)Cn1cncn1 (stereo not drawn) [Tebuconazole, reference compound]
MIC [2, 20]: > 64 µg/mL | MIC ([3]; Aspergillus flavus, ATCC9170, A. flavus ATCC 9170, MHIIB, 37°C, 100,000 spores/mL, BacTiter-Glo, Iron -, at least triplicate, read-out: MIC): 2 µg/mL (≈ 6.5 µM) | MIC (Z. tritici MUCL45407; Zymoseptoria tritici, Z. tritici MUCL45407, 25°C, 72 h, 100,000 spores/mL, BacTiter-Glo, Iron -, at least triplicate, read-out: MIC): 0.5 µg/mL (≈ 1.62 µM) | MIC (Candida albicans FH2173; [21]): 2 µg/mL (≈ 6.5 µM)

CC[C@H](C)[C@H]1NC(=O)[C@H]([C@H](O)c2ccccc2)NC(=O)[C@H]([C@H](O)C(=O)O)NC(=O)[C@@H](C)NC(=O)[C@H](NC(=O)[C@H](C(C)C)N(C)C(=O)C(C)C(N)CCCCCC(C)C)[C@@H](C)OC(=O)[C@H]([C@](C)(O)CC)NC(=O)[C@H]([C@H](O)C(=O)O)NC(=O)[C@H](CC(C)C)NC(=O)[C@H]([C@H](O)C(=O)O)NC(=O)[C@@H](CC(C)C)NC(=O)[C@H](CN)NC(=O)[C@@H](CCCCN)NC(=O)[C@H](CO)NC1=O (stereo partly drawn) [Chitinopeptin A] (X1-[NMeV][d(aThr)][dA][Asp(3S-OH)][Phe(3R-OH)][d(aIle)]S[dK][Dap][dL][Asp(3S-OH)]L[Asp(3S-OH)][Ile(3R-OH)]; ester 2-C)
MIC ([2]; ATCC 7601): > 64 µg/mL | MIC ([3]; ATCC 9170): > 64 µg/mL | MIC (Z. tritici MUCL45407; [12]): 16 µg/mL (≈ 8.84 µM) | MIC, iron bound form (Candida albicans FH2173; Iron +: Fe(III)-citrate added at molar ratio 1:1): 32 µg/mL | MIC (Candida albicans FH2173): 4 µg/mL (≈ 2.21 µM) | MIC (Candida albicans FH2173; listed as 1): 4 to 8 µg/mL | MIC ([4]; ATCC 19606): 16 µg/mL (≈ 8.84 µM) | MIC ([5]; ATCC 25238): 2 µg/mL (≈ 1.11 µM) | MIC, iron bound form ([5]; ATCC 25238): 4 µg/mL (≈ 2.21 µM) | MIC ([6]; ATCC 27853): > 64 µg/mL | MIC ([7]; ATCC 25923): > 64 µg/mL | MIC [9]: > 64 µg/mL | MIC (Bacillus subtilis DSM 10; DSM 10): 4 µg/mL (≈ 2.21 µM) | MIC, iron bound form (Bacillus subtilis DSM 10; DSM 10): 8 µg/mL (≈ 4.42 µM) | MIC ([8]; DSM 20030): 32 µg/mL (≈ 17.7 µM) | MIC (E. coli MG1655): > 256 µg/mL | MIC (E. coli ATCC 25922 ΔTolC): > 64 µg/mL | MIC (E. coli ATCC 35218; ATCC 35218): > 64 µg/mL | MIC (P. aeruginosa PAO750): > 64 µg/mL

Chitinopeptin D1+D2
MIC [1]: > 64 µg/mL | MIC [2, 10]: > 64 µg/mL | MIC [3, 11]: 64 µg/mL | MIC (Candida albicans FH2173): 16 µg/mL | MIC [4, 13]: 16 µg/mL | MIC [5, 14]: 2 µg/mL | MIC [6, 15]: > 64 µg/mL | MIC [7, 16]: > 64 µg/mL | MIC (Bacillus subtilis DSM 10; [17]): 4 µg/mL | MIC [8, 18]: 32 µg/mL | MIC (E. coli ATCC 25922 ΔTolC): > 64 µg/mL | MIC (E. coli ATCC 35218; [19]): > 64 µg/mL

C[C@@H]1[C@H](O)[C@@H](C)/C=C/C=C/C=C/C=C/C=C/C=C/C=C/[C@H](O[C@@H]2O[C@H](C)[C@@H](O)[C@H](N)[C@@H]2O)C[C@@H]2O[C@](O)(C[C@@H](O)C[C@@H](O)[C@H](O)CC[C@@H](O)C[C@@H](O)CC(=O)O[C@H]1C)C[C@H](O)[C@H]2C(=O)O [Amphotericin B, reference compound]
MIC [2, 20]: 4 µg/mL (≈ 4.33 µM) | MIC (Z. tritici MUCL45407; Zymoseptoria tritici, MUCL45407, 72 h): 0.031 µg/mL (≈ 0.0335 µM) | MIC (Candida albicans FH2173; [21]): 4 µg/mL (≈ 4.33 µM)

C[C@@H]1[C@H](O)[C@@H](C)/C=C/C=C/CC/C=C/C=C/C=C/C=C/C(O[C@H]2O[C@H](C)[C@@H](O)[C@H](N)[C@@H]2O)CC2O[C@](O)(CC(O)C(O)CCC(O)CC(O)CC(O)CC(=O)O[C@H]1C)CC(O)C2C(=O)O (stereo partly drawn) [Nystatin, reference compound]
MIC [2, 10]: 4 µg/mL (≈ 4.32 µM) | MIC [3, 11]: 16 µg/mL (≈ 17.3 µM) | MIC (Z. tritici MUCL45407; [12]): 0.5 µg/mL (≈ 0.54 µM) | MIC (Candida albicans FH2173): 16 µg/mL (≈ 17.3 µM)

CCCCCCCC(N)C(C)C(=O)N(C)[C@H](C(=O)N[C@H]1C(=O)N[C@H](C)C(=O)N[C@@H]([C@H](O)C(=O)O)C(=O)N[C@@H]([C@H](O)c2ccccc2)C(=O)N[C@H]([C@@H](C)CC)C(=O)N[C@@H](CO)C(=O)N[C@H](CCCCN)C(=O)N[C@@H](CN)C(=O)N[C@H](CC(C)C)C(=O)N[C@@H]([C@H](O)C(=O)O)C(=O)N[C@@H](CC(C)C)C(=O)N[C@@H]([C@H](O)C(=O)O)C(=O)N[C@@H]([C@](C)(O)CC)C(=O)O[C@@H]1C)C(C)C (stereo partly drawn) [Chitinopeptin B] (X2-[NMeV][d(aThr)][dA][Asp(3S-OH)][Phe(3R-OH)][d(aIle)]S[dK][Dap][dL][Asp(3S-OH)]L[Asp(3S-OH)][Ile(3R-OH)]; ester 2-C)
MIC ([2]; ATCC 7601): > 64 µg/mL | MIC ([3]; ATCC 9170): > 64 µg/mL | MIC (Z. tritici MUCL45407; [12]): 16 µg/mL (≈ 8.91 µM) | MIC (Candida albicans FH2173): 8 µg/mL (≈ 4.46 µM) | MIC (Candida albicans FH2173; listed as 2): 4 to 8 µg/mL | MIC ([4]; ATCC 19606): 64 µg/mL (≈ 35.7 µM) | MIC ([5]; ATCC 25238): 2 µg/mL (≈ 1.11 µM) | MIC ([6]; ATCC 27853): > 64 µg/mL | MIC ([7]; ATCC 25923): > 64 µg/mL | MIC (Bacillus subtilis DSM 10; DSM 10): 4 µg/mL (≈ 2.23 µM) | MIC ([8]; DSM 20030): 32 µg/mL (≈ 17.8 µM) | MIC (E. coli ATCC 25922 ΔTolC): > 64 µg/mL | MIC (E. coli ATCC 35218; ATCC 35218): > 64 µg/mL
